Data as given in ChEMBL document CHEMBL1781957, “Selective and potent agonists for estrogen receptor beta derived from molecular refinements of salicylaldoximes” (Eur J Med Chem, 2011).

What was measured:
Estrogen receptor beta [1] = molecular target: T1, Estrogen receptor beta (Homo sapiens, UniProt Q92731); assay: Displacement of [3H]-estradiol from human full-length ERbeta receptor by competitive radiometric binding assay relative to estradiol
[2] = molecular target: T2, Estrogen receptor (Homo sapiens) (UniProt P03372); assay: Displacement of [3H]-estradiol from human full-length ERalpha receptor by competitive radiometric binding assay relative to estradiol
T2 sequence (whole entry): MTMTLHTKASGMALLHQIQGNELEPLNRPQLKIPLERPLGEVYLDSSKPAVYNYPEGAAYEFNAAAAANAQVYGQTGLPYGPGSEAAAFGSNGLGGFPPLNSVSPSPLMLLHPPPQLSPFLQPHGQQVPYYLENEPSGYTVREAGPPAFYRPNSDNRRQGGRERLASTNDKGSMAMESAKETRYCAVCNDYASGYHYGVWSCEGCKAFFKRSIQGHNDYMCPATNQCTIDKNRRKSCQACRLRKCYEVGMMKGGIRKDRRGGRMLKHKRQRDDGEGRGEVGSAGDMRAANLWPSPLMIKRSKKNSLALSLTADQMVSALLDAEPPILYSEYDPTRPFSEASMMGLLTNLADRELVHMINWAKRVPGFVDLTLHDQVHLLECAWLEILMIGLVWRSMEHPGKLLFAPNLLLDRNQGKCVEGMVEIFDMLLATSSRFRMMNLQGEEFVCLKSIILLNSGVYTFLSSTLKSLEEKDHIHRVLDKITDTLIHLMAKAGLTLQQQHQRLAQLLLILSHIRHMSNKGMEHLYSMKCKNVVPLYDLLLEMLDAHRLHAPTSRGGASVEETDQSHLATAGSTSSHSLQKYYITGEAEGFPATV

Estrogen receptor beta [3] = molecular target: T1, Estrogen receptor beta
[4] = molecular target: T2, Estrogen receptor (Homo sapiens); assay: Agonist activity at human full-length ERalpha receptor expressed in human HEC1 cells co-expressing (ERE)2-pS2-luc gene assessed as transcriptional activation after 24 hrs by luciferase reporter gene assay relative to estradiol; format: functional, cell-based; settings: HEC-1
Estrogen receptor beta [5] = molecular target: T1, Estrogen receptor beta; assay: Agonist activity at human full-length ERbeta receptor expressed in human HEC1 cells co-expressing (ERE)2-pS2-luc gene assessed as transcriptional activation after 24 hrs by luciferase reporter gene assay relative to estradiol; format: functional, cell-based; settings: HEC-1
Estrogen receptor = molecular target: T3, Estrogen receptor (Homo sapiens, UniProt P03372)
T3 sequence (P03372 whole entry): T2 sequence (whole entry)

Estrogen receptor beta [6] = molecular target: T1, Estrogen receptor beta; remark: listed apart in the source

T1 sequence (Q92731 whole entry): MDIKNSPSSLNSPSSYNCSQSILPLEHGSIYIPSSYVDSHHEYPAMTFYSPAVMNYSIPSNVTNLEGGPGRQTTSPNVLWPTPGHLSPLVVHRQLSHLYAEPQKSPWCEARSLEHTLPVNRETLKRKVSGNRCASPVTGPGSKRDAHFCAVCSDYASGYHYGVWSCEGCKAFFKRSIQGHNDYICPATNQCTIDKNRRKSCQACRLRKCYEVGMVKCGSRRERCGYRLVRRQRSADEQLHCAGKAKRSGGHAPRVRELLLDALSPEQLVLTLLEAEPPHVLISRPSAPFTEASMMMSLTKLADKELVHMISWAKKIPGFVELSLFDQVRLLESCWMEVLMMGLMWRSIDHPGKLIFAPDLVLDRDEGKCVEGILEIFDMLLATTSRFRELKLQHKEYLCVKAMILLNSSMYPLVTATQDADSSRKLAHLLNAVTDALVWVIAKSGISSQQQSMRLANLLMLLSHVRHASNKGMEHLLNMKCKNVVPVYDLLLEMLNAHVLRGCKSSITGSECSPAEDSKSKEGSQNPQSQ

RBA (Estrogen receptor beta [1]) [%]	RBA [2] [%]	Ki (Estrogen receptor beta [3]) [pM]	Emax [4] [%]	Emax (Estrogen receptor beta [5]) [%]	EC50 (Estrogen receptor) [pM]	EC50 (Estrogen receptor beta [6]) [pM]	Compound
87.1	1.88	570	100	100	8400	1300	O/N=C/c1c(O)ccc(-c2ccc(O)c(F)c2)c1Cl
130	4.46	380	100	100	580	230	O/N=C/c1c(O)ccc(-c2ccc(O)cc2)c1Cl
15.8	1.47	–	–	–	–	–	Cc1c(-c2ccc(O)cc2)cc(Cl)c(O)c1/C=N/O
0.35	0.92	–	–	–	–	–	O/N=C/c1ccc(-c2ccc(O)cc2)c(-c2ccc(O)cc2)c1O
7.9	0.39	–	–	–	–	–	Cc1c(-c2ccc(O)c(F)c2)cc(Cl)c(O)c1/C=N/O
101	88.4	–	90	80	300	500	O/N=C/c1c(O)ccc(-c2ccc(O)cc2)c1-c1ccc(O)cc1
0.64	0.074	–	–	–	–	–	Cc1cc(-c2ccc(O)cc2)c(Cl)c(/C=N/O)c1O
